Reference: US9549942B2, “Composition for preventing or treating degenerative brain diseases including compound downregulating expression of BACE1 proteins” (RESEARCH & BUSINESS FOUNDATION SUNGKYUNKWAN UNIVERSITY, priority 2013, dated 2017)

Columns and labels:
BACE1 proteins [1] = assay: Amount of expression of BACE1 proteins in brain nerve cells (Western blot); type: cell-based, human; conditions: SH-SY5Y cells, treated 24 hours at 0.625, 1.25, 2.5, 5 and 10 μM, actin control
Procedure: As brain nerve cells, human neuroblastoma cells SH-SY5Y were used. […] The SH-SY5Y cells were plated at 5×10^5 cells/well into a 6-well plate. […] Then, the amount of expression of BACE1 proteins was determined by Western blot. Actin was used throughout as a control.

BACE1 proteins [2] = assay: BACE1 protein expression under oxidative stress (HNE) conditions of brain nerve cells (Western blot); type: cell-based, human; conditions: SH-SY5Y cells pretreated 24 hours at 1, 5 and 10 μM, then HNE
Procedure: In order to determine an influence of chlorhexidine and thioguanosine of the present disclosure on an amount of BACE1 expression under oxidative stress conditions of brain nerve cells, the following experiment was performed. Brain nerve cells, SH-SY5Y cells, were pretreated with chlorhexidine and thioguanosine at 1 μM, 5 μM, and 10 μM for 24 hours. Then, an oxidative stress substance HNE (4-hydroxynonenal) was applied to the SH-SY5Y cells, and a change in the amount of BACE1 proteins was determined by Western blot. A change in an amount of BACE1 mRNA was determined by real-time PCR.

3×Tg-AD mice [3] = assay: Morris water maze test, learning ability, Alzheimer's dementia animal model; type: in vivo, mouse; conditions: 25 mg/kg orally every day for 4 weeks, on the third and fourth days
Procedure: (§1) As an Alzheimer's dementia animal model, 3×Tg-AD mice were used. The 3×Tg-AD mouse is a mouse having overexpressed presenilin, amyloid precursor protein (APP), and Tau genes, which are frequently found in Alzheimer's dementia. The 3×Tg-AD mouse is an animal model that is widely used for research on Alzheimer's dementia (Oddo S. et al, 2003, Neuron, 39, 409-421). 25 mg/kg of chlorhexidine was orally administered every day for 4 weeks; and 0.1 mg/kg and 0.5 mg/kg of thioguanosine were orally administered every day for 8 weeks to 6-month old 3×Tg-AD mice. A Morris water maze test was used to evaluate the effects of chlorhexidine and thioguanosine administration on the mice. […] In this configuration, a treated or control subject was placed into the water with its head towards a water tank wall surface, and a time was recorded for the length of time taken for finding the escape platform. […] After 15 minutes, the mouse was placed into the water again, a subsequent time taken for finding the escape platform was recorded, and a change in the learning ability was determined. This procedure was performed over four days, and the result of change in learning ability was measured. […]

3×Tg-AD mice [4] = assay: Morris water maze, platform removed on fifth day (memory); type: in vivo, mouse; conditions: 25 mg/kg orally every day for 4 weeks, 60 seconds
Procedure: as §1

[5] = Body weights and weights of organs (potential toxicity); conditions: mouse, in vivo, po, 25 mg/kg
Procedure: (§2) As an Alzheimer's dementia animal model, 3×Tg-AD mice were used. The 3×Tg-AD mouse is a mouse having overexpressed presenilin, amyloid precursor protein (APP), and Tau genes, which are frequently found in Alzheimer's dementia. The 3×Tg-AD mouse is an animal model that is widely used for research on Alzheimer's dementia (Oddo S. et al, 2003, Neuron, 39, 409-421). 25 mg/kg of chlorhexidine was orally administered every day for 4 weeks; and 0.1 mg/kg and 0.5 mg/kg of thioguanosine were orally administered every day for 8 weeks to 6-month old 3×Tg-AD mice. A Morris water maze test was used to evaluate the effects of chlorhexidine and thioguanosine administration on the mice.
In order to evaluate potential toxicity of chorhexidine, the body weights and weights of organs were measured for treatment and vehicle subjects.

BACE1 proteins [6] = assay: BACE1 protein expression in brain of Alzheimer's dementia animal model (Western blot); type: in vivo; conditions: 3×Tg-AD mouse, 25 mg/kg orally every day for 4 weeks
Procedure: as §2
From the 3×Tg-AD mouse to which chlorhexidine was administered in Example 4a brain was extracted. The extracted brain was lysed using a tissue lysis buffer and RNA was extracted using Trizol. The amount of BACE1 expression was determined by Western blot and real-time PCR. FIGS. 18 and 19 show the results.

Aβ = assay: Generation of Aβ in brain cortex, immuno staining; type: in vivo; conditions: 3×Tg-AD mouse, 25 mg/kg orally every day for 4 weeks
Procedure: as §2
From the 3×Tg-AD mouse to which chlorhexidine was administered in Example 4a brain was extracted. A […] frozen section was prepared from the extracted brain using a microtome. Then, generation of Aβ was measured using immuno staining or a human amyloid 13 (1-40) assay kit (IBL) and a human amyloid β (1-42) assay kit (IBL). FIGS. 20 and 21 show the results.

BACE1 promoter = BACE1 promoter activity, BACE1 promoter-luciferase vector, Dual-Luciferase assay; type: cell-based; conditions: Homo sapiens; SH-SY5Y transfected with BACE1 promoter-luciferase vector, 10 μM for 24 hours; read-out: decrease of BACE1 promoter activity
Procedure: A BACE1 promoter-luciferase vector was transfected to brain nerve cells (SH-SY5Y). […] A change in a BACE1 promoter activity was measured using a Dual-Luciferase assay kit.

Structure (SMILES): [H]/N=C(\N/C(=N/[H])NCCCCCCNC(=N)NC(=N)Nc1ccc(Cl)cc1)Nc1ccc(Cl)cc1 [chlorhexidine, N′,N′″″-hexane-1,6-diylbis[N-(4-chlorophenyl)(imidodicarbonimidic diamide)]]
- amount of expression of BACE1 proteins (BACE1 proteins [1]): decreased at 5 μM and 10 μM
- increase in the amount of expression of BACE1 proteins due to oxidative stress (BACE1 proteins [2]): decreased at 5 μM and 10 μM
- learning ability for finding the platform (Morris water maze) (3×Tg-AD mice [3]): faster learning ability for finding the platform than a control group
- memory: time in target quadrant after platform removed (3×Tg-AD mice [4]): spent the majority of time in the location in which the platform was formerly placed
- toxicity [5]: no toxicity was determined
- expression of BACE1 proteins in brain (BACE1 proteins [6]): lower expression of BACE1 proteins than that of the control group
- generation of Aβ in cortex part of brain (Aβ): lower generation of Aβ than that of the control group
- inhibition at 10 µM (BACE1 promoter): ≥ 50%
